{
  "source": "paper PMC4195615",
  "about": "“Inhibition Effect of a Custom Peptide on Lung Tumors” (PLoS ONE, 2014)",
  "key": {"[1]": {"test_system": "normal lung cell versus cancerous lung cell", "conditions": "general statement, no reference given; cited from earlier work", "from_the_text": "IC50 is the chemical concentration that produces 50% cell survival. The selectivity index of a lung cancer drug is a measure of how specific its killing action is to cancer cells. It is the ratio of its IC50 for a normal lung cell to its IC50 for a cancerous lung cell."}, "[2]": {"conditions": "100 mg/m^2 in a three-week cycle; cited from earlier work", "method": "Drugs presently in use to combat lung cancers have severe side effects because their toxicity is not sufficiently selective to cancer cells. For example, docetaxel administered at a dose of 100 mg/m^2 in a three-week cycle causes haematological toxicity (86% patients having grade 3 or 4 neutropenia)."}, "[3]": {"test_system": "human NCI-H460 cancer cells xenograft", "test": "Nude mouse xenograft, post-treatment-only, comparison with docetaxel", "conditions": "for Mean tumor volume at week 4: 0.012 mmol/kg i.v. (CB1a 50 mg/kg, docetaxel 10 mg/kg), saline 5,400 mm^3; for Mean tumor volume at week 4 / Mean body weight at week 4 / Mean tumor weight as % of that in saline treated mice: 5 injections per week for 4 weeks; for Body weight course: compared with saline treated mice; for Mean body weight at week 5: data not shown; for Mean tumor weight as % of that in saline treated mice: week 4, sacrificed"}, "[4]": {"test_system": "MRC-5 normal cells", "test": "Cell plate growth study, photographed", "assay_type": "cell-based, human", "conditions": "50 µM CB1a added after 4 days, photographed after 24 hours, 2×10^3 cells at start", "method": "(§1) NCI-H460 cancer cells were grown on two cell plates (2×10^3 cells at start in each) – after 4 days, CB1a (50 µM) was added to one and not the other. […] This experiment was repeated but with normal cells. MRC-5 normal cells were grown on two cell plates (2×10^3 cells at start in each) – after 4 days, CB1a (50 µM) was added to one and not the other.\n(§2) Photos A and B show without and with CB1a (50 µM), on NCI-H460 cancer cells, respectively. Photos C and D show without and with CB1a (50 µM), on MRC-5 normal cells, respectively. Initial cell concentrations on plates were 2×10^3 cells for all; photos were taken after 5 days incubation; where CB1a was applied it was done so at the end of day 4. Comparing A and B: one can note without CB1a there is significant cellular growth, as to be expected from a cancer cell line; with CB1a there is not, presumably because of a CB1a kill action against cancer cells."}, "[5]": {"test_system": "NCI-H460 cancer cells", "test": "Cell plate growth study, photographed", "assay_type": "cell-based, human", "conditions": "50 µM CB1a added after 4 days, photographed after 24 hours, 2×10^3 cells at start", "method": "as §1, §2"}, "[6]": {"test_system": "NCI-H460 cancer cells", "test": "Tumor-like spheroid (MCTS) formation, modified hanging drop method", "assay_type": "cell-based, human", "conditions": "NCI-H460, 5×10^2 cells", "method": "We used non-adhesive, bacterial culture-grade polystyrene Petri dishes. Approximately 5×10^2 NCI-H460 cancer cells (3×10^4 cells/ml) were deposited as a drop on the inner face of lids to 90 mm Petri dishes. These lids were then placed on their dishes, which were filled with 10 ml phosphate-buffered saline (PBS). A monolayer of NCI-H460 lung cancer cells was then de-attached by 0.25% Trypsin-EDTA. These dishes were then incubated at 37 C in a 5% CO2 incubator. This modified “hanging drop” method causes the cancer cells to grow in a tumor-like aggregation; which is called a MCTS. After 3 days incubation, CB1a was applied in different concentrations (5, 15, 30, 45 and 60 µM) to different plates and a photo was then taken of each plate after 36 hours. This methodology investigated the post-treatment of CB1a, after tumor formation. The pre-treatment effect of CB1a, before tumor formation, was also studied. CB1a was applied in different concentrations (5, 15, 30, 45 and 60 µM) to different plates and left for 30 minutes before the 0.25% Trypsin-EDTA de-attachment step. After this step, the plates were incubated for 3 days and 36 hours before being photographed."}, "[7]": {"test_system": "human NCI-H460 cancer cells xenograft", "test": "Nude mouse xenograft, pre-and-post-treatment of CB1a", "assay_type": "in vivo", "conditions": "50 mg/kg s.c.", "method": "Afterwards, the animal test experiments were performed.\nSix mice were pre-treated with CB1a (50 mg/kg) 3 times in one week prior to them being subcutaneously xenografted with human tumorigenic NCI-H460 lung cancer cells (0.2 ml; 1×10^6 cells/ml). A control was studied in which saline was used instead of CB1a (6 mice in this control group). The dose of CB1a/saline was continued after the xenograft: 5 times per week for 5 weeks. The CB1a/saline injection point was in the dorsolateral neck area and the xenograft cancer cells were transplanted into the abdominal flank area of the mouse (Figure 5A). The distance between these two points is far (∼4 cm) as compared to the length of the mouse (∼6 cm). This distance tested whether CB1a could effectively travel in the blood stream without being destroyed. […] 36 days after the human lung cancer cells were xenografted on to the mouse – the mean volume of the tumor in the CB1a treated mice was just 19.3% of the tumor in the saline treated mice (Figure 5C); the mean weight of the tumor in CB1a treated mice was just 9% of the tumor in saline treated mice (Figure 5D). In other words, the tumor was ∼80% smaller and ∼90% lighter in CB1a treated mice."}, "[8]": {"test": "Pharmacokinetics of CB1a in rat blood by competitive ELISA", "assay_type": "in vivo", "conditions": "Sprague-Dawley rats, 50 mg/kg i.v., competitive ELISA with 5C5H5 antibody", "text": "Using this standard curve, an unknown concentration of CB1a in a test sample can then be found by finding its OD450nm (A/A0) value in an ELISA experiment. […] For our definitive standard curve, we used the one with a dilution rate of 1∶2000 and utilized this dilution rate when assaying test blood samples. We used a primary antibody dilution rate of 1∶5000.\nSix […] male Sprague-Dawley rats (230–260 g; sourced from BioLASCO, Yilan, Taiwan) were housed (3 per cage) in a specific pathogen free animal room. The rats were intravenously injected with CB1a peptide (50 mg/kg) and blood samples were then collected from the tail vein of the rats at the following time points: 5, 20, 25, 38.5, 50, 60 and 240 minutes after the CB1a injection (6 samples taken at each of these time points). The blood samples were transferred to heparinized microcentrifuge tubes and centrifuged at 4,000 g for 5 minutes; then frozen for storage at −80°C.\nThe blood samples were analyzed via a competitive ELISA technique, rather than the more direct ELISA technique described earlier. Blood samples were diluted 100 fold and then mixed with a known concentration of CB1a antibody (2mg/ml in PBST buffer, including 1% BSA). […] The CB1a concentration recorded on the plate is added to the known CB1a concentration that is washed off, bound to the CB1a antibodies, to get the total CB1a concentration. […]"}, "[9]": {"test_system": "HFL1 cells", "test": "In vitro toxicity to other normal cells", "assay_type": "cell-based", "conditions": "data not shown"}, "[10]": {"test_system": "3T3/3T6 tissue cells", "test": "In vitro toxicity to other normal cells", "assay_type": "cell-based", "conditions": "data not shown"}, "[11]": {"conditions": "tumor-bearing nude mice, 0.012 mmol/kg i.v., n = 6"}, "[12]": {"conditions": "tumor-bearing nude mice, 0.012 mmol/kg i.v., 5 injections per week, n = 6"}, "[13]": {"conditions": "tumor-bearing nude mice, 0.012 mmol/kg i.v."}},
  "data": [
    {"compound": "CC(=O)O[C@@]12CO[C@@H]1C[C@H](O)[C@@]1(C)C(=O)[C@H](O)C3=C(C)[C@@H](OC(=O)[C@H](O)[C@@H](NC(=O)OC(C)(C)C)c4ccccc4)C[C@@](O)([C@@H](OC(=O)c4ccccc4)[C@H]21)C3(C)C", "note": "[docetaxel, reference compound]", "values": [
      {"measurement": "Selectivity index (SI) of drugs presently on the market", "setting": "[1]", "result": "less than one"},
      {"measurement": "Patients having grade 3 or 4 neutropenia (haematological toxicity)", "setting": "[2]", "result": 86, "unit": "%"},
      {"measurement": "Mean tumor volume at week 4", "setting": "[3]; n = 6", "result": "3,200 mm^3"},
      {"measurement": "Mean body weight at week 4", "setting": "[3]; [11]", "result": 25, "unit": "g"},
      {"measurement": "Mean body weight at week 2 (maximum)", "setting": "[3]; [12]", "result": 27, "unit": "g"},
      {"measurement": "Body weight course", "setting": "[3]; [13]", "result": "weight loss"},
      {"measurement": "Mean body weight at week 5", "setting": "[3]; [13]", "result": 21, "unit": "g"},
      {"measurement": "Mean tumor weight as % of that in saline treated mice", "setting": "[3]; 0.012 mmol/kg i.v., n = 6", "result": 73, "unit": "%"}
    ]},
    {"compound": "H-KWKVFKKIEKKWKVFKKIEKAGPKWKVFKKIEK-OH [CB1a]", "values": [
      {"measurement": "Cell number on plate versus plate without CB1a", "setting": "[4]", "result": "does not kill these normal cells"},
      {"measurement": "Cell number on plate versus plate without CB1a", "setting": "[5]", "result": "significantly less cells"},
      {"measurement": "Spheroid formation, post-treatment with CB1a", "setting": "[6]; CB1a 5, 15, 30, 45, 60 µM applied after 3 days incubation, photo after 36 hours", "result": "tumor spheroids can still be observed"},
      {"measurement": "Spheroid formation, pre-treatment with CB1a", "setting": "[6]; CB1a 5-60 µM applied 30 minutes before de-attachment, higher CB1a concentrations", "result": "no spheroids form"},
      {"measurement": "Mean tumor volume as % of that in saline treated mice", "setting": "[7]; 36 days after xenograft, pre-and-post-treatment, n = 6", "result": 19.3, "unit": "%"},
      {"measurement": "Mean tumor weight as % of that in saline treated mice", "setting": "[7]; day 36, sacrificed, pre-and-post-treatment, n = 6", "result": 9, "unit": "%"},
      {"measurement": "Tumor lighter than in saline treated mice", "setting": "[7]; day 36, pre-and-post-treatment", "result": "~90", "unit": "%"},
      {"measurement": "Tumor smaller than in saline treated mice", "setting": "[7]; day 36, pre-and-post-treatment", "result": "~80", "unit": "%"},
      {"measurement": "Deaths during the experiment", "setting": "[7]; nude mice, 3 times in week before xenograft then 5 times per week for 5 weeks, n = 6", "result": "None of the mice died"},
      {"measurement": "Mean body weight compared with saline treated mice", "setting": "[7]; nude mice, pre-and-post-treatment, n = 6", "result": "comparable to that of saline treated mice"},
      {"measurement": "Time for which a CB1a concentration that can kill cancer cells (≥25 µM or ≥105 µg/ml) endures in rat blood", "setting": "[8]", "result": "around 25 minutes"},
      {"measurement": "half-life", "setting": "[8]; male, rat, iv, tail vein blood 5-240 minutes, n = 6", "result": 16.4, "unit": "min"},
      {"measurement": "Killing of normal cells at concentrations that kill lung cancer cells", "setting": "[9]", "result": "do not kill"},
      {"measurement": "Killing of normal cells at concentrations that kill lung cancer cells", "setting": "[10]", "result": "do not kill"},
      {"measurement": "Mean tumor volume at week 4", "setting": "[3]; n = 6", "result": "3,100 mm^3"},
      {"measurement": "Mean body weight at week 4", "setting": "[3]; [11]", "result": 30.5, "unit": "g"},
      {"measurement": "Mean body weight at the start", "setting": "[3]; [12]", "result": 25.5, "unit": "g"},
      {"measurement": "Body weight course", "setting": "[3]; [13]", "result": "gained weight at the same trajectory as saline treated mice"},
      {"measurement": "Mean body weight at week 5", "setting": "[3]; [13]", "result": 32, "unit": "g"},
      {"measurement": "Mean tumor weight as % of that in saline treated mice", "setting": "[3]; 0.012 mmol/kg i.v., n = 6", "result": 59, "unit": "%"}
    ]},
    {"compound": "COc1cccc2c1C(=O)c1c(O)c3c(c(O)c1C2=O)C[C@@](O)(C(=O)CO)C[C@@H]3O[C@H]1C[C@H](N)[C@H](O)[C@H](C)O1", "note": "[doxorubicin]", "values": [
      {"measurement": "Selectivity index (SI) of drugs presently on the market", "setting": "[1]", "result": "less than one"}
    ]}
  ]
}
